# Laboratory results taken from patent publication US20070060532A1, “Use of metformin and orlistat for the treatment or prevention of obesity” (Fournier Laboratories Ireland Limited, priority 2004, published 2007).
# System: C57BL/6 EOPS male mice
# Test: Effect of metformin and orlistat co-administration on body weight in mice fed with high-fat diet
# Format: in vivo
# Details: p.o. mixed with the diet, orlistat 2 mg/kg, metformin 100 mg/kg, mean±s.e.m.
# Description: This study was designed to evaluate the effects of a combination of metformin and orlistat on body weight.
# Animals: C57BL/6 EOPS male mice, weighing approximately 20 g, were used in the study. C57BL/6 EOPS mice are normal mice which, when subjected to a high-fat diet, become obese and develop hyperglycaemia. They were put by 5 into individual cages in a temperature-, humidity- and light-controlled room (21-23° C.±2° C., 12 h-12 h light-dark cycle). […] After acclimatization, they were randomized into groups of 20, based on body weight.
# The experimental groups were:
# Group 1: mice fed with standard diet
# Group 2: mice fed with high-fat diet, treated with orlistat 2 mg/kg p.o., mixed with the diet
# Group 3: mice fed with high-fat diet, treated with metformin 100 mg/kg p.o., mixed with the diet
# Group 4: mice fed with high-fat diet, treated with orlistat 2 mg/kg p.o. and metformin 100 mg/kg p.o., mixed with the diet.
# Body weight was recorded at the beginning of the study, and after one and three weeks of treatment, respectively.
# Statistics: All data are presented as mean±s.e.m. Results were subjected to covariance analysis corrected from baseline followed by Turkey-Kramer adjustment for multiple comparisons. A p<0.1 was considered significant (vs. standard diet).
Structure (SMILES),Body weight gain (g) after 1 week,Body weight gain (g) after 3 weeks
"CCCCCCCCCCC[C@@H](C[C@@H]1OC(=O)[C@H]1CCCCCC)OC(=O)[C@H](CC(C)C)NC=O (relative stereo) [Orlistat, [2S-[2α(R*),3β]]-N-formyl-L-leucine 1-[(3-hexyl-4-oxo-2-oxetanyl)methyl]dodecyl ester]",+3.2 ± 0.48 g,+5.5 ± 0.63 g
"CN(C)C(=N)NC(=N)N [Metformin, 1,1-dimethylbiguanide]",+1.3 ± 0.14 g,+3.5 ± 0.25 g
